Key:
[1] = target: CDC2L2 (Homo sapiens (Human), UniProt Q9UQ88); experiment: KINOMEscan scanMAX; assay type: binding; settings: 2000 nM; read-out: Percent Control
[2] = target: TAOK3 (Homo sapiens (Human), UniProt Q9H2K8); experiment: KINOMEscan scanMAX; assay type: binding; settings: 2000 nM; read-out: Percent Control
[3] = target: STK36 (Homo sapiens (Human), UniProt Q9NRP7); experiment: KINOMEscan scanMAX; assay type: binding; settings: 2000 nM; read-out: Percent Control
[4] = target: PIK3C2B (Homo sapiens (Human), UniProt O00750); experiment: KINOMEscan scanMAX; assay type: binding; settings: 2000 nM; read-out: Percent Control
[5] = target: MARK1 (Homo sapiens (Human), UniProt Q9P0L2); experiment: KINOMEscan scanMAX; assay type: binding; settings: 2000 nM; read-out: Percent Control
[6] = target: PAK7 (Homo sapiens (Human), UniProt Q9P286); experiment: KINOMEscan scanMAX; assay type: binding; settings: 2000 nM; read-out: Percent Control
[7] = target: TEC (Homo sapiens (Human), UniProt P42680); experiment: KINOMEscan scanMAX; assay type: binding; settings: 2000 nM; read-out: Percent Control
[8] = target: PAK4 (Homo sapiens (Human), UniProt O96013); experiment: KINOMEscan scanMAX; assay type: binding; settings: 2000 nM; read-out: Percent Control
[9] = target: SIK2 (Homo sapiens (Human), UniProt Q9H0K1); experiment: KINOMEscan scanMAX; assay type: binding; settings: 2000 nM; read-out: Percent Control
[10] = target: PFTAIRE2 (CDK15) (Homo sapiens (Human), UniProt Q96Q40); experiment: KINOMEscan scanMAX; assay type: binding; settings: 2000 nM; read-out: Percent Control
[11] = target: STK35 (Homo sapiens (Human), UniProt Q8TDR2); experiment: KINOMEscan scanMAX; assay type: binding; settings: 2000 nM; read-out: Percent Control
[12] = target: SRMS (Homo sapiens (Human), UniProt Q9H3Y6); experiment: KINOMEscan scanMAX; assay type: binding; settings: 2000 nM; read-out: Percent Control
Sequence of SRMS (Q9H3Y6 whole entry): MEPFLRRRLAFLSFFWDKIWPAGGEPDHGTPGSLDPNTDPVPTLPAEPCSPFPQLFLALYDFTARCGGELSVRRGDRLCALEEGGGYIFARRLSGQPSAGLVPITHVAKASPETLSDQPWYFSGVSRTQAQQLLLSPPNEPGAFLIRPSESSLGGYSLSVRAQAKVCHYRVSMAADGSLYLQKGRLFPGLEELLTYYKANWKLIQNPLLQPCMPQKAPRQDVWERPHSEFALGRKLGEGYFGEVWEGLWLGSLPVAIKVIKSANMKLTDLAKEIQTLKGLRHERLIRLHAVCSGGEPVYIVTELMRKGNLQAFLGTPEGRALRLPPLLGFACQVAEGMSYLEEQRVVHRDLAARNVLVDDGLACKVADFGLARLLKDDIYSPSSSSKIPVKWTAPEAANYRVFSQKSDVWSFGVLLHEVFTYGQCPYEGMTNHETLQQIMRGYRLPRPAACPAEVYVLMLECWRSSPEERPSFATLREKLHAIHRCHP

[13] = target: ROCK2 (Homo sapiens (Human), UniProt O75116); experiment: KINOMEscan scanMAX; assay type: binding; settings: 2000 nM; read-out: Percent Control
[14] = target: HIPK4 (Homo sapiens (Human), UniProt Q8NE63); experiment: KINOMEscan scanMAX; assay type: binding; settings: 2000 nM; read-out: Percent Control
[15] = target: PIK3CA(Q546K) (Homo sapiens (Human), UniProt P42336, Q546K); experiment: KINOMEscan scanMAX; assay type: binding; settings: 2000 nM; read-out: Percent Control
[16] = target: ROS1 (Homo sapiens (Human), UniProt P08922); experiment: KINOMEscan scanMAX; assay type: binding; settings: 2000 nM; read-out: Percent Control
[17] = target: MLK1 (MAP3K9) (Homo sapiens (Human), UniProt P80192); experiment: KINOMEscan scanMAX; assay type: binding; settings: 2000 nM; read-out: Percent Control
[18] = target: CSNK2A1 (Homo sapiens (Human), UniProt P68400); experiment: KINOMEscan scanMAX; assay type: binding; settings: 2000 nM; read-out: Percent Control
[19] = target: RIOK1 (Homo sapiens (Human), UniProt Q9BRS2); experiment: KINOMEscan scanMAX; assay type: binding; settings: 2000 nM; read-out: Percent Control
[20] = target: PIKFYVE (Homo sapiens (Human), UniProt Q9Y2I7); experiment: KINOMEscan scanMAX; assay type: binding; settings: 2000 nM; read-out: Percent Control
[21] = target: TYRO3 (Homo sapiens (Human), UniProt Q06418); experiment: KINOMEscan scanMAX; assay type: binding; settings: 2000 nM; read-out: Percent Control
[22] = target: LOK (STK10) (Homo sapiens (Human), UniProt O94804); experiment: KINOMEscan scanMAX; assay type: binding; settings: 2000 nM; read-out: Percent Control
[23] = target: TIE2 (TEK) (Homo sapiens (Human), UniProt Q02763); experiment: KINOMEscan scanMAX; assay type: binding; settings: 2000 nM; read-out: Percent Control
Sequence of TIE2 (TEK) (Q02763 23-1124): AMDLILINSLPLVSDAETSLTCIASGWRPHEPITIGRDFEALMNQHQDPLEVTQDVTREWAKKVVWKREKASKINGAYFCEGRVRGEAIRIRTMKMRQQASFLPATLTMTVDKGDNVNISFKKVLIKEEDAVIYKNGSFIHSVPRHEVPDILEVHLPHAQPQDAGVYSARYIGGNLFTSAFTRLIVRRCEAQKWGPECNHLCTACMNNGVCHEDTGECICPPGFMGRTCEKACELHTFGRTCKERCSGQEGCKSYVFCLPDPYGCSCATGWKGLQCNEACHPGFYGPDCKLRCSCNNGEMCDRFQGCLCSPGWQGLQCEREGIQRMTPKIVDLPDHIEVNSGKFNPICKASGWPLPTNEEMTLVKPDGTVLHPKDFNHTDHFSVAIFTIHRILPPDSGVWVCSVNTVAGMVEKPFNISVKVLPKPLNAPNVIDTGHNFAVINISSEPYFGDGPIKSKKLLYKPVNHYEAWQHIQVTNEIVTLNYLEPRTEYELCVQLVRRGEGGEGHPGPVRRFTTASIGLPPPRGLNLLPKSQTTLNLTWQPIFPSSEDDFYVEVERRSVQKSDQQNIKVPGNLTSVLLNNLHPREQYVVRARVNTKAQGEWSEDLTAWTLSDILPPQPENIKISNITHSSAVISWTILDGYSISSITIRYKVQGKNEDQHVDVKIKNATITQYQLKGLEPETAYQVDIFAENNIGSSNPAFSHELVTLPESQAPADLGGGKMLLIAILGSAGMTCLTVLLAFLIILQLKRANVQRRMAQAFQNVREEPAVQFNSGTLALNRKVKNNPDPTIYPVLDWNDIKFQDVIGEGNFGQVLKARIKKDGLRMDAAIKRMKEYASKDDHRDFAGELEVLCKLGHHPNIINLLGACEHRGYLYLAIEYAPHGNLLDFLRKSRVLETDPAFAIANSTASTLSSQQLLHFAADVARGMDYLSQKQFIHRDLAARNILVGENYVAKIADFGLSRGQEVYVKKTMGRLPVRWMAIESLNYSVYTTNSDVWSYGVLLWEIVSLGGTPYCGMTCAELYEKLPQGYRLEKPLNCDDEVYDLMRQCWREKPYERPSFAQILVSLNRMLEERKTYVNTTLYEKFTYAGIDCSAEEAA

[24] = target: ERK5 (MAPK7) (Homo sapiens (Human), UniProt Q13164); experiment: KINOMEscan scanMAX; assay type: binding; settings: 2000 nM; read-out: Percent Control
Sequence of ERK5 (MAPK7) (Q13164 whole entry): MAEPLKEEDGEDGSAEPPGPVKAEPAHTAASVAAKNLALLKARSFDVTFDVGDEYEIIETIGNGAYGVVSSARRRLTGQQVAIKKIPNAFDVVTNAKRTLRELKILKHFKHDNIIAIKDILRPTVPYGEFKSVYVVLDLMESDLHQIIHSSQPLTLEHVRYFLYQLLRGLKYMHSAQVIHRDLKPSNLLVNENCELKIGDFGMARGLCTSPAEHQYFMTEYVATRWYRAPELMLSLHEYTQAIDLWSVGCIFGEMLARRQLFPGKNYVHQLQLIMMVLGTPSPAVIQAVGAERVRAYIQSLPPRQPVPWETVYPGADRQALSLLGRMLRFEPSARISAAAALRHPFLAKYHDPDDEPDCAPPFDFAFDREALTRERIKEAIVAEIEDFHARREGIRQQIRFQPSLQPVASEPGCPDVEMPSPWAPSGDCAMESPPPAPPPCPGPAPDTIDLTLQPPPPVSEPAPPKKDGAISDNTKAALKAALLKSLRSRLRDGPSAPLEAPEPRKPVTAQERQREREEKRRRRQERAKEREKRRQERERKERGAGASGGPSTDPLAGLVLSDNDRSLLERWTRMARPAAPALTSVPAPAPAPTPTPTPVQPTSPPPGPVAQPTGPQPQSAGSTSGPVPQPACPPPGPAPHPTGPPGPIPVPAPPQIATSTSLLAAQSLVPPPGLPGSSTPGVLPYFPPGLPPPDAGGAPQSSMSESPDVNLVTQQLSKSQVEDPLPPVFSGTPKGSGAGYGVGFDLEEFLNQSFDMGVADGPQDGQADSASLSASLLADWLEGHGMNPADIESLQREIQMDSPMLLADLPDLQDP

[25] = target: TAOK1 (Homo sapiens (Human), UniProt Q7L7X3); experiment: KINOMEscan scanMAX; assay type: binding; settings: 2000 nM; read-out: Percent Control
[26] = target: NEK11 (Homo sapiens (Human), UniProt Q8NG66); experiment: KINOMEscan scanMAX; assay type: binding; settings: 2000 nM; read-out: Percent Control
[27] = target: CDK8 in complex with Cyclin C (Homo sapiens (Human), UniProt P49336); experiment: LanthaScreen Eu Kinase Binding Assay
Description: The binding of the tracer to the kinase is detected using a europium-labeled anti-tag antibody, which binds to the kinase of interest. […] The binding of an inhibitor to the kinase competes for binding with the tracer, resulting in a loss of FRET.

[28] = target: AMPK-alpha1 (PRKAA1) (Homo sapiens (Human), UniProt Q13131); experiment: KINOMEscan scanMAX; assay type: binding; settings: 2000 nM; read-out: Percent Control
[29] = target: FLT4 (Homo sapiens (Human), UniProt P35916); experiment: KINOMEscan scanMAX; assay type: binding; settings: 2000 nM; read-out: Percent Control
[30] = target: MKNK1 (Homo sapiens (Human), UniProt Q9BUB5); experiment: KINOMEscan scanMAX; assay type: binding; settings: 2000 nM; read-out: Percent Control
Sequence of MKNK1 (Q9BUB5 whole entry): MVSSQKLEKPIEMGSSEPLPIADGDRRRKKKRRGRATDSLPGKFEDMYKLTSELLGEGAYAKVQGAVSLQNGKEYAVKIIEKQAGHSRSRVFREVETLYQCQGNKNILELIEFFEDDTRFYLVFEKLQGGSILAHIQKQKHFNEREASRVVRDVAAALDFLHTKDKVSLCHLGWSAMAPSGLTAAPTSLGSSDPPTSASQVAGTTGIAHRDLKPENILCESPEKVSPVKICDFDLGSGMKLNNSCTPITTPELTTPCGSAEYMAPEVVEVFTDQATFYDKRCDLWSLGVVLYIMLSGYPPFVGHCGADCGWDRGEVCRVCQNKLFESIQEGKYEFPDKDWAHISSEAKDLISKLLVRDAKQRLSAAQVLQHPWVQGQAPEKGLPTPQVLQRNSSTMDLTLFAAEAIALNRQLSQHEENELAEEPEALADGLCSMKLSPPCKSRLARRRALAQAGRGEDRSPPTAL

[31] = target: SNARK (NUAK2) (Homo sapiens (Human), UniProt Q9H093); experiment: KINOMEscan scanMAX; assay type: binding; settings: 2000 nM; read-out: Percent Control
Sequence of SNARK (NUAK2) (Q9H093 whole entry): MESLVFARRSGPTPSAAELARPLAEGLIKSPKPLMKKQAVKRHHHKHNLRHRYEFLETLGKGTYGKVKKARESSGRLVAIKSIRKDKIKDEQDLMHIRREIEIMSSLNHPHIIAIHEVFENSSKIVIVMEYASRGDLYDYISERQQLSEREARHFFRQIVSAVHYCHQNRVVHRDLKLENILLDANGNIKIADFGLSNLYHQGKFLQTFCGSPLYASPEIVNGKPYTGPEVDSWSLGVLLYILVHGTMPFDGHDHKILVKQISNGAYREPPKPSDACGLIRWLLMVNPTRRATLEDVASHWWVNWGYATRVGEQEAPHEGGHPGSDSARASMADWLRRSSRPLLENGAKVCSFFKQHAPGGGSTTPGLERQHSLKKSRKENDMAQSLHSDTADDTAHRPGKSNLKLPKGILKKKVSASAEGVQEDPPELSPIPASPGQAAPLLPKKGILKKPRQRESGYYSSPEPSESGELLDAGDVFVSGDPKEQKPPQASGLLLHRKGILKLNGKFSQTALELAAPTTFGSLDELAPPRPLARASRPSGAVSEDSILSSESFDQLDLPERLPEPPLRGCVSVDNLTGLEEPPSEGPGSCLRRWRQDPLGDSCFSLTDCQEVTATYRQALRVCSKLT

[32] = target: FRK (Homo sapiens (Human), UniProt P42685); experiment: KINOMEscan scanMAX; assay type: binding; settings: 2000 nM; read-out: Percent Control
[33] = target: PIK3C2G (Homo sapiens (Human), UniProt O75747); experiment: KINOMEscan scanMAX; assay type: binding; settings: 2000 nM; read-out: Percent Control
[34] = target: ABL1(F317I)-phosphorylated (Homo sapiens (Human), UniProt P00519, F317I); experiment: KINOMEscan scanMAX; assay type: binding; settings: 2000 nM; read-out: Percent Control
[35] = target: BLK (Homo sapiens (Human), UniProt P51451); experiment: KINOMEscan scanMAX; assay type: binding; settings: 2000 nM; read-out: Percent Control
[36] = target: p38-beta (MAPK11) (Homo sapiens (Human), UniProt Q15759); experiment: KINOMEscan scanMAX; assay type: binding; settings: 2000 nM; read-out: Percent Control
[37] = target: ABL1(F317I)-nonphosphorylated (Homo sapiens (Human), UniProt P00519, F317I); experiment: KINOMEscan scanMAX; assay type: binding; settings: 2000 nM; read-out: Percent Control
[38] = target: FGR (Homo sapiens (Human), UniProt P09769); experiment: KINOMEscan scanMAX; assay type: binding; settings: 2000 nM; read-out: Percent Control
[39] = Metabolic stability in human hepatocytes; assay type: in vitro ADME; settings: 2 μM, 37° C.

Sequence of STK36 (Q9NRP7 whole entry): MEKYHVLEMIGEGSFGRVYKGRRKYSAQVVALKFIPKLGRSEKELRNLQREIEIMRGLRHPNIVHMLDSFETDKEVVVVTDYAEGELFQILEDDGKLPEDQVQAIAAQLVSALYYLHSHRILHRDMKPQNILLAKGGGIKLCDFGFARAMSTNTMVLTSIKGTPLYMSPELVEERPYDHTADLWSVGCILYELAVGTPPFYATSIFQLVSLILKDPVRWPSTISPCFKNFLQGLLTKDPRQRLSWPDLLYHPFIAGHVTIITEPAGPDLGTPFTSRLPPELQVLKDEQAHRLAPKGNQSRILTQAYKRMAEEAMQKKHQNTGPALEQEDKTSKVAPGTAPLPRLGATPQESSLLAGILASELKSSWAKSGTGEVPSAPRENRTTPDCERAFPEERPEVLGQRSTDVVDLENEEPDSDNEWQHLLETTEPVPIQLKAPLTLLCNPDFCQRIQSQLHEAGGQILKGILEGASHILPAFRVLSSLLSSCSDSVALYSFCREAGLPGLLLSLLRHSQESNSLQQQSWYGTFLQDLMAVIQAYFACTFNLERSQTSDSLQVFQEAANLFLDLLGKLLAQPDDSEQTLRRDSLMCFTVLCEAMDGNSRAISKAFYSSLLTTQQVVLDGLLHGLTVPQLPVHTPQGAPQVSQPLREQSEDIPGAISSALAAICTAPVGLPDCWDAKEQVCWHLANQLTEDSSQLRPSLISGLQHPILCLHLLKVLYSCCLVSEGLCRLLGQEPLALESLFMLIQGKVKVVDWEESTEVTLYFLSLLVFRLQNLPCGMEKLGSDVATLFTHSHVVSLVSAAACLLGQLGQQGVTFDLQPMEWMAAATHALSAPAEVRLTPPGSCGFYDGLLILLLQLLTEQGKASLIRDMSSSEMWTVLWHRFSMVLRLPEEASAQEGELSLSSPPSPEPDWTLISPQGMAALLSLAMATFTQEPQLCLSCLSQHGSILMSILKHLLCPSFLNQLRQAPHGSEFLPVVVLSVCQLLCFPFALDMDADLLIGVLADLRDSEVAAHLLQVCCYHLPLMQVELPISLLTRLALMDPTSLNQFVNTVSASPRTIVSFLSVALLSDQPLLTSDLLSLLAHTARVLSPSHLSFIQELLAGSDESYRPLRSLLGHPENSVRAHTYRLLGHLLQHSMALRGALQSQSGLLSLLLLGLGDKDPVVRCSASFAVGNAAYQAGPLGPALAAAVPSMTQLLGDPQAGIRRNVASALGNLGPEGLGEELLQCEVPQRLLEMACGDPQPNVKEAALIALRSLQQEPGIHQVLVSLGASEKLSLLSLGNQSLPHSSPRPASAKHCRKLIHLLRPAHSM

CN1CCN(C(=O)c2ccc3cc(CCNc4ccnc5ccc(C#N)cc45)ccc3c2)CC1 [compound 6148, 4-((2-(6-(4-methylpiperazine-1-carbonyl)naphthalen-2-yl)ethyl)amino)quinoline-6-carbonitrile]
remaining binding at 2 µM [1]: 97% | remaining binding at 2 µM [2]: 79% | remaining binding at 2 µM [3]: 88% | remaining binding at 2 µM [4]: 80% | remaining binding at 2 µM [5]: 81% | remaining binding at 2 µM [6]: 100% | remaining binding at 2 µM [7]: 100% | remaining binding at 2 µM [8]: 97% | remaining binding at 2 µM [9]: 100% | remaining binding at 2 µM [10]: 100% | remaining binding at 2 µM [11]: 100% | remaining binding at 2 µM [12]: 75% | remaining binding at 2 µM [13]: 71% | remaining binding at 2 µM [14]: 75% | remaining binding at 2 µM [15]: 70% | remaining binding at 2 µM [16]: 91% | remaining binding at 2 µM [17]: 87% | remaining binding at 2 µM [18]: 56% | remaining binding at 2 µM [19]: 94% | remaining binding at 2 µM [20]: 86% | remaining binding at 2 µM [21]: 77% | remaining binding at 2 µM [22]: 94% | remaining binding at 2 µM [23]: 89% | remaining binding at 2 µM [24]: 94% | remaining binding at 2 µM [25]: 76% | remaining binding at 2 µM [26]: 60% | IC50 [27]: 3.8 nM | remaining binding at 2 µM [28]: 94% | remaining binding at 2 µM [29]: 97% | remaining binding at 2 µM [30]: 72% | remaining binding at 2 µM [31]: 75% | remaining binding at 2 µM [32]: 92% | remaining binding at 2 µM [33]: 57% | remaining binding at 2 µM [34]: 89% | remaining binding at 2 µM [35]: 100% | remaining binding at 2 µM [36]: 80% | remaining binding at 2 µM [37]: 88% | remaining binding at 2 µM [38]: 90% | Metabolic conversion rate in cultured hepatocytes [39]: greatly decreased relative to Senexin B
